Data taken from US20170008888A1 (KYORIN PHARMACEUTICAL CO., LTD., priority 2014, published 2017).

Key:
ERK5 = target: T1, ERK5 (Homo sapiens, UniProt Q13164); assay: Probe-based (AX9989 acyl phosphate ATP probe) kinase profiling in Jurkat lysate: ERK5; type: binding; conditions: for IC50: calculated from percent inhibition and screening concentration, Jurkat lysate, AX9989 probe; for inhibition at 10 µM: screening concentration 10 μM; for inhibition at 10 µM / inhibition at 1 µM: read-out: ERK5 Inhibition % at indicated screening concentration; for inhibition at 1 µM: screening concentration 1 μM
T1 construct: screened for activity against several kinases in Jurkat cells; endogenous in cells; host or cells: Jurkat cell lysate
How it was run: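 ERK5 IC50 values came from percent inhibition at the screening concentration, measured as loss of LC/MS signal of probe-labelled active-site peptides. Compound was added for 15 min at room temperature to Jurkat lysate (5 mg/ml, 20 mM MnCl2) before labelling with AX9989 ATP acyl phosphate probe at 5 μM.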

JAK1 = target: T2, JAK1 (Homo sapiens, UniProt P23458); assay: Probe-based (AX9989) kinase profiling in Jurkat lysate: JAK1; type: binding; conditions: read-out: JAK1 Inhibition % at indicated screening concentration; for inhibition at 10 µM: screening concentration 10 μM; for inhibition at 1 µM: screening concentration 1 μM
T2 construct: screened for activity against several kinases in Jurkat cells; endogenous in cells; host or cells: Jurkat cell lysate
How it was run: (§1)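 Jurkat lysate (50 mM HEPES pH 7.5, 150 mM NaCl, 0.1% Triton X-100, 20 mM MnCl2) pre-incubated 15 min with compound at room temperature, then labeled with 5 μM acyl phosphate ATP probe AX9989. Tryptic probe-labeled peptides streptavidin-captured and quantified by LC/MS; percent inhibition from decreased fragment intensity versus untreated.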

ABL or ARG = assay: Probe-based (AX9989) kinase profiling in Jurkat lysate: ABL or ARG; type: binding
How it was run: as §1

ACK = target: T3, ACK (Homo sapiens, UniProt Q07912); assay: Probe-based (AX9989) kinase profiling in Jurkat lysate: ACK; type: binding; conditions: read-out: ACK Inhibition % at indicated screening concentration; for inhibition at 10 µM: screening concentration 10 μM; for inhibition at 1 µM: screening concentration 1 μM
T3 construct: screened for activity against several kinases in Jurkat cells; endogenous in cells; host or cells: Jurkat cell lysate
How it was run: as §1

human PBMCs = assay: Human PBMC TNF-α response to endotoxin (ELISA); type: cell-based; conditions: 0.1 μg/ml LPS 16 h, read-out: EC50 for the inhibition of the human PBMC TNF-α response to endotoxin, ave. ± S.D.
How it was run: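 PBMCs at 2e6 cells/ml in RPMI 1640 with 10% charcoal-dextran-treated FBS were pre-treated 1 h at 37 °C with compound (4-point 1:5 dilution from 10 μM). Stimulation with 0.1 μg/ml E. coli 0111:B4 LPS for 16 h; TNF-α measured by ELISA (A450) in 25-fold diluted supernatant.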

AurB or AurC = assay: Probe-based (AX9989) kinase profiling in Jurkat lysate: AurB or AurC; type: binding
How it was run: as §1

T1 sequence (Q13164 whole entry): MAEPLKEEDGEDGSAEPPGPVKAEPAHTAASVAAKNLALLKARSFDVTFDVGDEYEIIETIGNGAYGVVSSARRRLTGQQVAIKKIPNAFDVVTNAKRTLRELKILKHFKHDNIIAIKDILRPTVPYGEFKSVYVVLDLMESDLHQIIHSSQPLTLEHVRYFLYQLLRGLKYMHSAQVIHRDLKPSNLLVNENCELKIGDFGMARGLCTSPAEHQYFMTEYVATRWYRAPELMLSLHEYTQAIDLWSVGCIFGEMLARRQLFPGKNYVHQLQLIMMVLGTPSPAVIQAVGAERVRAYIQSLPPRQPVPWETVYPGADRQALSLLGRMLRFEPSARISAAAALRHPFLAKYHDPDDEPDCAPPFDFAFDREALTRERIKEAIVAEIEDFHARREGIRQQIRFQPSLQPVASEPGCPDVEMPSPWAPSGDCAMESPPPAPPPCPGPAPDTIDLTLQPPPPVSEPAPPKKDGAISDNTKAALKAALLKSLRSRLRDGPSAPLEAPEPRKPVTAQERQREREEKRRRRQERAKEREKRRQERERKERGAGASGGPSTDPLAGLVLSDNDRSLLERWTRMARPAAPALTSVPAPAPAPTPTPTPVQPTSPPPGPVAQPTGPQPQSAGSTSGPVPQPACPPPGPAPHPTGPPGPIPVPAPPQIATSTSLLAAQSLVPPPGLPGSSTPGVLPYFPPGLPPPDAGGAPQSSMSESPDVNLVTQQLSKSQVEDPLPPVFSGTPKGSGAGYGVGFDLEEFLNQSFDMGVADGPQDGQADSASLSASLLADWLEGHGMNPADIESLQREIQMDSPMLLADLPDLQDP
T2 sequence (P23458 whole entry): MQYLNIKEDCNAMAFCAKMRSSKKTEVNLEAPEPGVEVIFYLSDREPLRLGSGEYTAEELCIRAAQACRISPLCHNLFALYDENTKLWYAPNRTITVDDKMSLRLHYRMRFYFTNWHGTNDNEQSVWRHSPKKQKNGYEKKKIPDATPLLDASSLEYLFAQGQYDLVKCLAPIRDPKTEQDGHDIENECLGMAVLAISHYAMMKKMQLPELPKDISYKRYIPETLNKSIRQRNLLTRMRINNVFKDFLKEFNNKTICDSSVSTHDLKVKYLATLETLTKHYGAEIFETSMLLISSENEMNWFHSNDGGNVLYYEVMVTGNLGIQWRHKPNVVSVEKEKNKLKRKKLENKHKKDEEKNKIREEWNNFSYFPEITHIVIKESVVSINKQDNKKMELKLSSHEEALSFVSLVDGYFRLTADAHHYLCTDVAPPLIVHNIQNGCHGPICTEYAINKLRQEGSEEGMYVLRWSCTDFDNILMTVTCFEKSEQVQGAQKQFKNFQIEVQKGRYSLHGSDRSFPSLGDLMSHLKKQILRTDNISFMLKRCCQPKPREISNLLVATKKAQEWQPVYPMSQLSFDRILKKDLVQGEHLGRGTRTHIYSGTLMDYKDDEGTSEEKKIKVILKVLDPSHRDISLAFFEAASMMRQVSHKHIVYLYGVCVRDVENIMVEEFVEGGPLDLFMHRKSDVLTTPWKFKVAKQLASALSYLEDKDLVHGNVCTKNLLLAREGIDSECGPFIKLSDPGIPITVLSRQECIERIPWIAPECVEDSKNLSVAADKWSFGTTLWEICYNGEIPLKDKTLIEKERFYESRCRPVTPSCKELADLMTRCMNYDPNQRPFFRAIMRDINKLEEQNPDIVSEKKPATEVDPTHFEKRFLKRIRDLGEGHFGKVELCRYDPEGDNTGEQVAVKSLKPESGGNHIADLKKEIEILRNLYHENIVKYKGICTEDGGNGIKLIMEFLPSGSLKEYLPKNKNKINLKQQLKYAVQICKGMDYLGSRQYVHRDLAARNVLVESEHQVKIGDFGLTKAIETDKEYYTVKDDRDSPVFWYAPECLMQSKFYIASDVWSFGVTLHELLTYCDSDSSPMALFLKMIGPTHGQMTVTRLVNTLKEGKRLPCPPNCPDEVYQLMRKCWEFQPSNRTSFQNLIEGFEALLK
T3 sequence (Q07912 whole entry): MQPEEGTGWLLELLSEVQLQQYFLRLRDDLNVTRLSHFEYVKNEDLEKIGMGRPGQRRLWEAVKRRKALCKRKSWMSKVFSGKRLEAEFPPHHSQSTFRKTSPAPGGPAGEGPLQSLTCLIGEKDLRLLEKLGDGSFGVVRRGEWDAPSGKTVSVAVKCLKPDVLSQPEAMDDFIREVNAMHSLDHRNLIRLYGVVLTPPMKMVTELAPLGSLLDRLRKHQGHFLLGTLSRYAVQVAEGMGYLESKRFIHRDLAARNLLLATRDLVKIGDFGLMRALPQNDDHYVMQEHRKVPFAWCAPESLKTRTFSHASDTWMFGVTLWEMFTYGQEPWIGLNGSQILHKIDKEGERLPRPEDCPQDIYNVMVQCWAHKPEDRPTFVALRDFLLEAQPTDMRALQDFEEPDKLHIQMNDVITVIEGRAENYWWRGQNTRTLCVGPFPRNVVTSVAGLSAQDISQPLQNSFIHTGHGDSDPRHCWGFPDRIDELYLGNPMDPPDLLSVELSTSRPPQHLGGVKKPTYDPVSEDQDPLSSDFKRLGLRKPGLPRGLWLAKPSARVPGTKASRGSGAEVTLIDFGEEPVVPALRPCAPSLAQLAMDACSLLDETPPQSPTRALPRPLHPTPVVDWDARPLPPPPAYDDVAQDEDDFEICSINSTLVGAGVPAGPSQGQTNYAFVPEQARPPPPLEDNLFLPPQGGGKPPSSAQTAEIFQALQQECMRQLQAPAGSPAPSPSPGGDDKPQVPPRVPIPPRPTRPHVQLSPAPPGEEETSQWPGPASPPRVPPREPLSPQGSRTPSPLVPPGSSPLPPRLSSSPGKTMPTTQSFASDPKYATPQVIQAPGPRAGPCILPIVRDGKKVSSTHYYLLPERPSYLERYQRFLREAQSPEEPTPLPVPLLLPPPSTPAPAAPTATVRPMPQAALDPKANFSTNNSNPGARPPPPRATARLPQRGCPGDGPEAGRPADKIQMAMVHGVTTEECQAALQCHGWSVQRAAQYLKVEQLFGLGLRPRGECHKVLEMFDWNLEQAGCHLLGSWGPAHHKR

SMILES	IC50 (ERK5) [nM]	inhibition at 10 µM (ERK5) [%]	inhibition at 10 µM (JAK1) [%]	ABL or ARG Inhibition % at indicated screening concentration (ABL or ARG; screening concentration 10 μM)	inhibition at 10 µM (ACK) [%]	AurB or AurC Inhibition % at indicated screening concentration (AurB or AurC; screening concentration 10 μM)	inhibition at 1 µM (ERK5) [%]	inhibition at 1 µM (JAK1) [%]	ABL or ARG Inhibition % at indicated screening concentration (ABL or ARG; screening concentration 1 μM)	inhibition at 1 µM (ACK) [%]	AurB or AurC Inhibition % at indicated screening concentration (AurB or AurC; screening concentration 1 μM)	EC50 (human PBMCs) [nM]
CCOc1cc(C(=O)N2CCC(N3CCN(C)CC3)CC2)ccc1Nc1cc2c(cn1)N(C)C(C(F)(F)F)c1ccccc1N2C (centres unmarked) [Compound T47]	> 500	50 to 75	≤ 35	E (E is ≦35%)	≤ 35	E (E is ≦35%)	–	–	–	–	–	3970
CC(C)Oc1cc(C(=O)N2CCN(C3CCN(C)CC3)CC2)ccc1Nc1cc2c(cn1)N(C)C(=O)c1ccccc1N2C [Compound T49]	50 to 100	–	–	–	–	–	> 90	≤ 35	E (E is ≦35%)	≤ 35	E (E is ≦35%)	300 ± 120
CC(C)Oc1cc(C(=O)N2CC[C@@H](NCCF)C2)ccc1Nc1cc2c(cn1)N(C)C(=O)c1ccccc1N2C [Compound T50]	101 to 500	–	–	–	–	–	75 to 90	≤ 35	E (E is ≦35%)	≤ 35	E (E is ≦35%)	630
CCOc1cc(C(=O)N2CCN(c3cccnc3)CC2)ccc1Nc1cc2c(cn1)N(C)C(=O)c1occc1N2C [Compound T56]	≤ 50	–	–	–	–	–	> 90	≤ 35	E (E is ≦35%)	≤ 35	E (E is ≦35%)	300
CCOc1cc(C(=O)N[C@H]2CC[C@H](O)CC2)ccc1Nc1cc2c(cn1)N(C)C(=O)c1ccccc1N2C [Compound T62]	101 to 500	–	–	–	–	–	75 to 90	≤ 35	E (E is ≦35%)	≤ 35	E (E is ≦35%)	490 ± 100
CCOc1cc(C(=O)N[C@H]2CC[C@@H](O)CC2)ccc1Nc1cc2c(cn1)N(C)C(=O)c1ccccc1N2C [Compound T63]	101 to 500	–	–	–	–	–	75 to 90	≤ 35	E (E is ≦35%)	≤ 35	E (E is ≦35%)	750
CCOc1cc(C(=O)N(C)[C@H]2CC[C@H](O)CC2)ccc1Nc1cc2c(cn1)N(C)C(=O)c1ccccc1N2C [Compound T64]	50 to 100	–	–	–	–	–	> 90	≤ 35	E (E is ≦35%)	≤ 35	E (E is ≦35%)	620
CN1CCC(N2CCN(C(=O)c3ccc(Nc4cc5c(cn4)N(C)C(=O)c4ccccc4N5C)c(F)c3)CC2)CC1 [Compound T70]	≤ 50	–	–	–	–	–	> 90	≤ 35	E (E is ≦35%)	≤ 35	E (E is ≦35%)	2090
CN1CCC(N2CCN(C(=O)c3ccc(Nc4cc5c(cn4)N(C)C(=O)c4ccccc4N5C)c(OC(F)F)c3)CC2)CC1 [Compound T76]	≤ 50	–	–	–	–	–	> 90	≤ 35	E (E is ≦35%)	≤ 35	E (E is ≦35%)	1110
CN1C(=O)c2c(F)ccc(F)c2Oc2cc(N[C@H]3CC[C@H](O)CC3)ncc21 [Compound T97]	> 500	> 90	≤ 35	E (E is ≦35%)	≤ 35	E (E is ≦35%)	–	–	–	–	–	430 ± 450

More lines, main results first:

IC50 (ERK5) [nM]	inhibition at 10 µM (ERK5) [%]	inhibition at 10 µM (JAK1) [%]	ABL or ARG Inhibition % at indicated screening concentration (ABL or ARG; screening concentration 10 μM)	inhibition at 10 µM (ACK) [%]	AurB or AurC Inhibition % at indicated screening concentration (AurB or AurC; screening concentration 10 μM)	inhibition at 1 µM (ERK5) [%]	inhibition at 1 µM (JAK1) [%]	ABL or ARG Inhibition % at indicated screening concentration (ABL or ARG; screening concentration 1 μM)	inhibition at 1 µM (ACK) [%]	AurB or AurC Inhibition % at indicated screening concentration (AurB or AurC; screening concentration 1 μM)	SMILES	EC50 (human PBMCs) [nM]
101 to 500	> 90	≤ 35	E (E is ≦35%)	≤ 35	E (E is ≦35%)	–	–	–	–	–	CC(C)Oc1cc(C(=O)N2CCC[C@H](O)C2)ccc1Nc1cc2c(cn1)N(C)C(=O)c1ccccc1N2C [Compound T48]	740
> 500	50 to 75	≤ 35	E (E is ≦35%)	≤ 35	E (E is ≦35%)	–	–	–	–	–	CCOc1cc(C(=O)N2CCC(NCCF)C2)ccc1Nc1cc2c(cn1)N(C)C(C(F)(F)F)c1ccccc1N2C (centres unmarked) [Compound T54]	7140
101 to 500	> 90	≤ 35	E (E is ≦35%)	≤ 35	D (D is >35% to ≦50%)	–	–	–	–	–	CN1C(=O)c2c(F)cccc2Oc2cc(N[C@H]3CC[C@H](O)CC3)ncc21 [Compound T92]	440 ± 290
> 500	> 90	≤ 35	E (E is ≦35%)	≤ 35	E (E is ≦35%)	–	–	–	–	–	COc1cccc2c1Oc1cc(N[C@H]3CC[C@H](O)CC3)ncc1N(C)C2=O [Compound T95]	1380 ± 1710
101 to 500	> 90	≤ 35	E (E is ≦35%)	≤ 35	E (E is ≦35%)	–	–	–	–	–	CCOc1cc(C(=O)N2CCN(C3CCN(C)CC3)CC2)ccc1Nc1cc2c(cn1)N(C)C(=O)c1ccccc1O2 [Compound T98]	810 ± 920
101 to 500	> 90	≤ 35	E (E is ≦35%)	≤ 35	E (E is ≦35%)	–	–	–	–	–	CCOc1cc(C(=O)N2CCN(C3CCN(C)CC3)CC2)ccc1Nc1cc2c(cn1)N(C)C(=O)c1c(F)cccc1O2 [Compound T102]	290 ± 280
101 to 500	> 90	≤ 35	E (E is ≦35%)	≤ 35	E (E is ≦35%)	–	–	–	–	–	C[C@@H]1C[C@H](Nc2cc3c(cn2)N(C)C(=O)c2ccccc2N3C)CC[C@H]1O [Compound T115]	780 ± 690
